Patent publication US7820701B2, “Amorphous lercanidipine hydrochloride and uses thereof” (Recordati Ireland Limited, priority 2005, dated 2010)
Counter-ions that a name gives are not always drawn.

Assay: Aqueous solubility of amorphous vs crystalline lercanidipine hydrochloride
Assay type: physicochemical
Conditions: water, stirring at 27-28° C. for 24 hr, filtered, HPLC
Procedure: The aqueous solubility of amorphous lercanidipine hydrochloride, was compared to the solubility of crystalline lercanidipine hydrochloride. The solubility of the respective samples was determined by suspending 20-30 mg of sample test was in 10 mL water and stirring at 27-28° C. for 24 hr. The sample was then filtered through a PVDF filter (0.2 micron) and the solution diluted with acetonitrile and analyzed by HPLC.

SOLUBILITY [mg/L]	SMILES
1.5	COC(=O)C1=C(C)NC(C)=C(C(=O)OC(C)(C)CN(C)CCC(c2ccccc2)c2ccccc2)C1c1cccc([N+](=O)[O-])c1 (stereo not drawn) [Amorphous lercanidipine HCl (Example 1), methyl 1,1,N-trimethyl-N-(3,3-diphenylpropyl)-2-aminoethyl 1,4-dihydro-2,6-dimethyl-4-(3-nitrophenyl)pyridine-3,5-dicarboxylate]
1.5	COC(=O)C1=C(C)NC(C)=C(C(=O)OC(C)(C)CN(C)CCC(c2ccccc2)c2ccccc2)C1c1cccc([N+](=O)[O-])c1 (stereo not drawn) [Amorphous lercanidipine HCl (Example 2), methyl 1,1,N-trimethyl-N-(3,3-diphenylpropyl)-2-aminoethyl 1,4-dihydro-2,6-dimethyl-4-(3-nitrophenyl)pyridine-3,5-dicarboxylate]
0.65	COC(=O)C1=C(C)NC(C)=C(C(=O)OC(C)(C)CN(C)CCC(c2ccccc2)c2ccccc2)C1c1cccc([N+](=O)[O-])c1 (stereo not drawn) [Crystalline lercanidipine HCl (Form I), methyl 1,1,N-trimethyl-N-(3,3-diphenylpropyl)-2-aminoethyl 1,4-dihydro-2,6-dimethyl-4-(3-nitrophenyl)pyridine-3,5-dicarboxylate, reference compound]
